Source: patent US20100105655A1, “NOVEL COMPOUNDS 515” (ASTRAZENECA AB, priority 2008, published 2010)

Biological target: T1, IGFR kinase (Homo sapiens, UniProt P08069)
T1 construct: purchased Millipore
Experiment: Enzyme assay (c), IGFR kinase, Caliper LabChip
Type: biochemical
Settings: not given

T1 sequence (P08069 31-1367): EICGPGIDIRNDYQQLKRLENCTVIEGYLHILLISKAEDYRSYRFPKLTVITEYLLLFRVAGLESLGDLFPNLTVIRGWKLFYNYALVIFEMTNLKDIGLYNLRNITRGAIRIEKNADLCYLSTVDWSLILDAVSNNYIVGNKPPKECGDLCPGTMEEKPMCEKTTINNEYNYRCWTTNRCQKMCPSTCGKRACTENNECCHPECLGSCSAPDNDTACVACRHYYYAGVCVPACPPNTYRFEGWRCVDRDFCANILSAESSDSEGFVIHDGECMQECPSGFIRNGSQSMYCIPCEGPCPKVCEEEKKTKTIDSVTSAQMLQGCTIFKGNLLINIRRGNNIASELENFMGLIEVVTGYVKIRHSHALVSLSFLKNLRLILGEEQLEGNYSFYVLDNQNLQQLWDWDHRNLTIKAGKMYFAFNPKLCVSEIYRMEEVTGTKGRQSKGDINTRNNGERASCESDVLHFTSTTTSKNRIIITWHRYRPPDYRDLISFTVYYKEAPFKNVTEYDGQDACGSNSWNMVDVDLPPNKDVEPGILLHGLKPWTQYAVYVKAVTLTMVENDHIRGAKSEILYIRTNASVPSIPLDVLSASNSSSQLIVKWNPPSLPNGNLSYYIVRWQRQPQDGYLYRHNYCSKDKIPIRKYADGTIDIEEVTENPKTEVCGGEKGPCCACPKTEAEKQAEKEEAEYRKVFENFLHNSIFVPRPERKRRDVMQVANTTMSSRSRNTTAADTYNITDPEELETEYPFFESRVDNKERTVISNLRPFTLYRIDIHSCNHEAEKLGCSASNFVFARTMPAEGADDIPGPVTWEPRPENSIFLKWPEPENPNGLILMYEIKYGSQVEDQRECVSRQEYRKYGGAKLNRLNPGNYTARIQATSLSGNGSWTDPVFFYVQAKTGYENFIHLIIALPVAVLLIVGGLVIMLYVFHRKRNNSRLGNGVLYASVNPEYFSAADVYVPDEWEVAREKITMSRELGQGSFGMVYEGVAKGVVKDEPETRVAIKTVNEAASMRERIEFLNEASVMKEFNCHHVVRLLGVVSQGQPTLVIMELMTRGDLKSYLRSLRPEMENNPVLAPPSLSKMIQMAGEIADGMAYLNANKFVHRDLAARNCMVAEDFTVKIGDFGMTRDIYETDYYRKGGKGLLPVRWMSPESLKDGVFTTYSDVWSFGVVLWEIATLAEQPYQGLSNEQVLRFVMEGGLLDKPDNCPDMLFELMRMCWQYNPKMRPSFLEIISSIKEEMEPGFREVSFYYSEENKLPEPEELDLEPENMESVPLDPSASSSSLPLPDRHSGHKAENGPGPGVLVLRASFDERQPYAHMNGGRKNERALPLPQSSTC

Row | IC50 [nM] | Compound
1 | 7 | COc1cc(N2CC3CNCC(C2)O3)ccc1Nc1ncc(Cl)c(-c2cnc3c(F)cccn23)n1 [Example 183, 5-chloro-4-(8-fluoroimidazo[1,2-a]pyridin-3-yl)-N-[2-methoxy-4-(9-oxa-3,7-diazabicyclo[3.3.1]nonan-7-yl)phenyl]pyrimidin-2-amine]

Same assay, conditions: 30 nM IGFR kinase, 6 uM ATP, 3 uM peptide mix; read-out: IGFR IC50

Row | IC50 [nM] | Compound
2 | 21 | COc1cc(C(=O)N2C[C@@H]3C[C@H]2CN3C)ccc1Nc1ncc(Cl)c(-c2cnc3ccccn23)n1 [Example 31, [4-[(5-chloro-4-imidazo[1,2-a]pyridin-3-yl-pyrimidin-2-yl)amino]-3-methoxy-phenyl]-[(1S,4S)-5-methyl-2,5-diazabicyclo[2.2.1]heptan-2-yl]methanone]
3 | 23 | COc1cc(N2CC3CN(CCO)CC(C2)O3)ccc1Nc1ncc(C)c(-c2cnc3ccccn23)n1 [Example 232, 2-[7-[4-[(4-imidazo[1,2-a]pyridin-3-yl-5-methyl-pyrimidin-2-yl)amino]-3-methoxy-phenyl]-9-oxa-3,7-diazabicyclo[3.3.1]nonan-3-yl]ethanol]
4 | 33 | COc1cc(C(=O)N2CCNCC2)ccc1Nc1ncc(Cl)c(-c2cnc3ccccn23)n1 [Example 30, [4-[(5-chloro-4-imidazo[1,2-a]pyridin-3-yl-pyrimidin-2-yl)amino]-3-methoxy-phenyl]-piperazin-1-yl-methanone]
5 | 18 | COc1cc(OC2CCN(C(=O)[C@H](C)O)CC2)ccc1Nc1ncc(Cl)c(-c2cnc3ccccn23)n1 [Example 9A, (2S)-1-[4-[4-[(5-chloro-4-imidazo[1,2-a]pyridin-3-yl-pyrimidin-2-yl)amino]-3-methoxy-phenoxy]-1-piperidyl]-2-hydroxy-propan-1-one]
6 | 12 | COc1ccc(OC[C@H]2CCCN2)cc1Nc1ncc(Cl)c(-c2cnc3ccccn23)n1 [Example 6.4, 5-chloro-4-imidazo[1,2-a]pyridin-3-yl-N-[2-methoxy-5-[[(2R)-pyrrolidin-2-yl]methoxy]phenyl]pyrimidin-2-amine]
7 | 15 | COc1cc(N2CCN(C(=O)C3(O)CC3)CC2)ccc1Nc1ncc(Cl)c(-c2cnc3ccccn23)n1 [Example 22, [4-[4-[(5-chloro-4-imidazo[1,2-a]pyridin-3-yl-pyrimidin-2-yl)amino]-3-methoxy-phenyl]piperazin-1-yl]-(1-hydroxycyclopropyl)methanone]
8 | 16 | COc1cc(OC2CN(CC(C)(C)O)C2)ccc1Nc1ncc(Cl)c(-c2cnc3ccccn23)n1 [Example 63, 1-[3-[4-[(5-chloro-4-imidazo[1,2-a]pyridin-3-yl-pyrimidin-2-yl)amino]-3-methoxy-phenoxy]azetidin-1-yl]-2-methyl-propan-2-ol]
9 | 69 | COc1cc(N2CC[C@@H](N(C)C)C2)ccc1Nc1ncc(Cl)c(-c2cnc3ccccn23)n1 [Example 3.11, 5-chloro-N-[4-[(3R)-3-dimethylaminopyrrolidin-1-yl]-2-methoxy-phenyl]-4-imidazo[1,2-a]pyridin-3-yl-pyrimidin-2-amine]
10 | 36 | COc1cc(O[C@H]2CCN(C(=O)[C@H](C)O)C2)ccc1Nc1ncc(Cl)c(-c2cnc3ccccn23)n1 [Example 15A, (2S)-1-[(3S)-3-[4-[(5-chloro-4-imidazo[1,2-a]pyridin-3-yl-pyrimidin-2-yl)amino]-3-methoxy-phenoxy]pyrrolidin-1-yl]-2-hydroxy-propan-1-one]
11 | 9 | COc1cc(N2CCN(C(=O)C3CCC(=O)N3)CC2)ccc1Nc1ncc(Cl)c(-c2cnc3ccccn23)n1 (stereo not shown) [Example 25.1, 5-[4-[4-[(5-chloro-4-imidazo[1,2-a]pyridin-3-yl-pyrimidin-2-yl)amino]-3-methoxy-phenyl]piperazine-1-carbonyl]pyrrolidin-2-one]
12 | 19 | COc1cc(N2CC3CN(CCS(C)(=O)=O)CC(C2)O3)ccc1Nc1ncc(Cl)c(-c2cnc3c(F)cccn23)n1 [Example 207, 5-chloro-4-(8-fluoroimidazo[1,2-a]pyridin-3-yl)-N-[2-methoxy-4-[3-(2-methylsulfonylethyl)-9-oxa-3,7-diazabicyclo[3.3.1]nonan-7-yl]phenyl]pyrimidin-2-amine]
13 | 43 | COc1cc(N2CCN(CCO)[C@H](C)C2)ccc1Nc1ncc(C)c(-c2cnc3ccccn23)n1 [Example 270, 2-[(2R)-4-[4-[(4-imidazo[1,2-a]pyridin-3-yl-5-methyl-pyrimidin-2-yl)amino]-3-methoxy-phenyl]-2-methyl-piperazin-1-yl]ethanol]
14 | 13 | COc1cc(N2CCN(CCO)CC2)ccc1Nc1ncc(C#N)c(-c2cnc3ccccn23)n1 [Example 116, 2-[[4-[4-(2-hydroxyethyl)piperazin-1-yl]-2-methoxy-phenyl]amino]-4-imidazo[1,2-a]pyridin-3-yl-pyrimidine-5-carbonitrile]
15 | 23 | COc1cc(N2CCN(C(C)(C)CO)CC2)ccc1Nc1ncc(F)c(-c2cnc3ccc(F)cn23)n1 [Example 261, 2-[4-[4-[[5-fluoro-4-(6-fluoroimidazo[1,2-a]pyridin-3-yl)pyrimidin-2-yl]amino]-3-methoxy-phenyl]piperazin-1-yl]-2-methyl-propan-1-ol]
16 | 92 | COc1cc(N2CCN(C(C)=O)CC2)ccc1Nc1ncc(C#N)c(-c2cnc3ccccn23)n1 [Example 118, 2-[[4-(4-acetylpiperazin-1-yl)-2-methoxy-phenyl]amino]-4-imidazo[1,2-a]pyridin-3-yl-pyrimidine-5-carbonitrile]
17 | 6 | COc1cc(N2CCNCC2)ccc1Nc1ncc(Cl)c(-c2cnc3c(F)cc(F)cn23)n1 [Example 265, 5-chloro-4-(6,8-difluoroimidazo[1,2-a]pyridin-3-yl)-N-(2-methoxy-4-piperazin-1-yl-phenyl)pyrimidin-2-amine]
18 | 19 | COc1cc(OC2CN(C[C@@H](C)O)C2)ccc1Nc1ncc(Cl)c(-c2cnc3ccccn23)n1 [Example 62, (2R)-1-[3-[4-[(5-chloro-4-imidazo[1,2-a]pyridin-3-yl-pyrimidin-2-yl)amino]-3-methoxy-phenoxy]azetidin-1-yl]propan-2-ol]
19 | 16 | COc1cc(N2CCN(C(CO)CO)CC2)ccc1Nc1ncc(C)c(-c2cnc3ccccn23)n1 [Example 269, 2-[4-[4-[(4-imidazo[1,2-a]pyridin-3-yl-5-methyl-pyrimidin-2-yl)amino]-3-methoxy-phenyl]piperazin-1-yl]propane-1,3-diol]
20 | 127 | COc1cc(OC[C@H]2CCCN2)ccc1Nc1ncc(OC)c(-c2cnc3ccccn23)n1 [Example 96, 4-imidazo[1,2-a]pyridin-3-yl-5-methoxy-N-[2-methoxy-4-[[(2R)-pyrrolidin-2-yl]methoxy]phenyl]pyrimidin-2-amine]
21 | 43 | COCCN1CCN(c2ccc(Nc3ncc(F)c(-c4cnc5ccccn45)n3)c(OC)c2)CC1 [Example 82, 5-fluoro-4-imidazo[1,2-a]pyridin-3-yl-N-[2-methoxy-4-[4-(2-methoxyethyl)piperazin-1-yl]phenyl]pyrimidin-2-amine]
22 | 13 | COc1cc(OC[C@H]2CCCN2C(C)=O)ccc1Nc1ncc(OC)c(-c2cnc3ccccn23)n1 [Example 114, 1-[(2R)-2-[[4-[(4-imidazo[1,2-a]pyridin-3-yl-5-methoxy-pyrimidin-2-yl)amino]-3-methoxy-phenoxy]methyl]pyrrolidin-1-yl]ethanone]
23 | 11 | COc1cc(N2CCN(C(=O)C(C)(C)O)CC2)ccc1Nc1ncc(Cl)c(-c2cnc3ccccn23)n1 [Example 25.6, 1-[4-[4-[(5-chloro-4-imidazo[1,2-a]pyridin-3-yl-pyrimidin-2-yl)amino]-3-methoxy-phenyl]piperazin-1-yl]-2-hydroxy-2-methyl-propan-1-one]
24 | 3 | COc1cc(N2CCN(C(=O)CO)CC2)ccc1Nc1ncc(Cl)c(-c2cnn3ccccc23)n1 [Example 130, 1-[4-[4-[(5-chloro-4-pyrazolo[1,5-a]pyridin-3-yl-pyrimidin-2-yl)amino]-3-methoxy-phenyl]piperazin-1-yl]-2-hydroxy-ethanone]
25 | 65 | COc1cc(OC[C@H]2CCCN2)ccc1Nc1ncc(F)c(-c2cnc3ccccn23)n1 [Example 87, 5-fluoro-4-imidazo[1,2-a]pyridin-3-yl-N-[2-methoxy-4-[[(2R)-pyrrolidin-2-yl]methoxy]phenyl]pyrimidin-2-amine]
26 | 8 | CNCC(=O)N1CCC(c2ccc(Nc3ncc(F)c(-c4cnn5ccccc45)n3)c(OC)c2)CC1 [Example 238, 1-[4-[4-[(5-fluoro-4-pyrazolo[1,5-a]pyridin-3-yl-pyrimidin-2-yl)amino]-3-methoxy-phenyl]-1-piperidyl]-2-(methylamino)ethanone]
27 | 6 | COc1cc(C2CCN(C(=O)[C@H](C)OC)CC2)ccc1Nc1ncc(Cl)c(-c2cnc3ccccn23)n1 [Example 28.3, (2S)-1-[4-[4-[(5-chloro-4-imidazo[1,2-a]pyridin-3-yl-pyrimidin-2-yl)amino]-3-methoxy-phenyl]-1-piperidyl]-2-methoxy-propan-1-one]
28 | 8 | COc1cc(N2CCN(C(=O)[C@@H]3CCC(=O)N3)CC2)ccc1Nc1ncc(Cl)c(-c2cnc3ccccn23)n1 [Example 25.1A, (5S)-5-[4-[4-[(5-chloro-4-imidazo[1,2-a]pyridin-3-yl-pyrimidin-2-yl)amino]-3-methoxy-phenyl]piperazine-1-carbonyl]pyrrolidin-2-one]
29 | 120 | COc1cc2c(cc1Nc1ncc(Cl)c(-c3cnn4ccccc34)n1)NCC2 [Example 155, N-(5-chloro-4-pyrazolo[1,5-a]pyridin-3-yl-pyrimidin-2-yl)-5-methoxy-indolin-6-amine]
30 | 9 | COc1cc(N2CC3CN(C(C)=O)CC(C2)O3)ccc1Nc1ncc(Cl)c(-c2cnc3c(F)cccn23)n1 [Example 215, 1-[3-[4-[[5-chloro-4-(8-fluoroimidazo[1,2-a]pyridin-3-yl)pyrimidin-2-yl]amino]-3-methoxy-phenyl]-9-oxa-3,7-diazabicyclo[3.3.1]nonan-7-yl]ethanone]
31 | 5 | COc1cc(N2CCN(C(C)(C)CO)CC2)ccc1Nc1ncc(Cl)c(-c2cnn3ccccc23)n1 [Example 230, 2-[4-[4-[(5-chloro-4-pyrazolo[1,5-a]pyridin-3-yl-pyrimidin-2-yl)amino]-3-methoxy-phenyl]piperazin-1-yl]-2-methyl-propan-1-ol]
